The results in this text go back to patent US5378706A, “Fused-thiazole derivatives active on the cholinergic system, and pharmaceutical compositions containing same” (Sanofi, priority 1987, dated 1995).

Experiment [1] addresses T1, M1 -type muscarinic cholinergic receptor (Rattus norvegicus, UniProt P08482).
T1 sequence (P08482 1-460): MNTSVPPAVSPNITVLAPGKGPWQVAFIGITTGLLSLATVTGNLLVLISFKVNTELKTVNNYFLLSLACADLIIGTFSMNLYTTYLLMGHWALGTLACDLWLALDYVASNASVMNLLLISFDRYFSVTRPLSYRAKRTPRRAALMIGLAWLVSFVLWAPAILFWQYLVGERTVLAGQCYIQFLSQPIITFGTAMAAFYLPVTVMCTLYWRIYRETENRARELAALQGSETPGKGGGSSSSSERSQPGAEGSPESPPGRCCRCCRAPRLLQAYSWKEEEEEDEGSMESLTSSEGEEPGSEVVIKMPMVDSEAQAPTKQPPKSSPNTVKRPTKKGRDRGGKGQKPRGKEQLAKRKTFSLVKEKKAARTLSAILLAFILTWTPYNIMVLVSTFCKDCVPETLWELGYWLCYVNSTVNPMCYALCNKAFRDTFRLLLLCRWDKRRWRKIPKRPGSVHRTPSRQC
Put plainly: biochemical. The class given is binding. The conditions noted are these: for IC50: rat hippocampus homogenate, 3H-PZ 1 nM, 2 hours at 4° C., pH 7.40, read-out: IC50 3H-PZ (M1); for ratio R of the IC50 values for the M1 and M2 receptors: selectivity, values correspond to IC50 M2 / IC50 M1.
Method: The interaction of the molecules with the M1 -type muscarinic receptors was studied by in vitro measurement, on a rat hippocampus homogenate, of the displacement of tritiated pirenzepine from its specific binding sites. Aliquots (10 μl) of a 5% (w/v) rat hippocampus homogenate in an Na2 HPO4 buffer (50 mM, pH 7.40) are incubated for 2 hours at 4° C. in the presence of ^3 H-PZ (76 Ci/mmol; final concentration 1 nM) and increasing concentrations of the test product. The final volume is 2 ml. The reaction is stopped by centrifugation for 10 minutes at 50,000×g. After decantation and washing of the residues, the bound radioactivity is counted by liquid scintillation. The non-specific binding is determined in the presence of 10 μM atropine sulfate.

The target of experiment [2] is T2, M2 -type muscarinic cholinergic receptor (Cavia porcellus, UniProt H0VRN8).
T2 construct: on a smooth guinea-pig ileum muscle homogenate; from tissue; host or cells: guinea-pig ileum smooth muscle homogenate
T2 sequence (H0VRN8 1-466): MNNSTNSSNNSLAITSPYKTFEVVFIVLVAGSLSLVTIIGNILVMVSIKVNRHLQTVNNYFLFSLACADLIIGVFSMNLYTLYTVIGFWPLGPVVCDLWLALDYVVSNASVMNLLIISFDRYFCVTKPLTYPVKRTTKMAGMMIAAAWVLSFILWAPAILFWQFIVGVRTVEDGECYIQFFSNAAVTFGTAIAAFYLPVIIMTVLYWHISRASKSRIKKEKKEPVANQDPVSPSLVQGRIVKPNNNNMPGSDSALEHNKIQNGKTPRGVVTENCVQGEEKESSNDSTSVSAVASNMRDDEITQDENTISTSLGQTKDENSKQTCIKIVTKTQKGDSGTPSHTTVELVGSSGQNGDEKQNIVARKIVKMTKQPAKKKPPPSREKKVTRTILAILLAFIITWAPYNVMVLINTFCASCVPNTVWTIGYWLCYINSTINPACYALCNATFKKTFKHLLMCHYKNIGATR
Put plainly: Affinity for the M2-type muscarinic cholinergic receptor, displacement of tritiated N-methylscopolamine (3H-NMS) on smooth guinea-pig ileum muscle homogenate. The note with it: guinea-pig ileum smooth muscle homogenate, 3H-NMS 0.3 nM, 20 minutes at 30° C., pH 7.5; read-out: IC50 3H-NMS (M2). The class given is binding. On the procedure: The M1 -type receptors are concentrated in certain regions of the brain, such as the hippocampus, the cerebral cortex and the striatum, and also in the sympathetic ganglia. These binding sites can be selectively labeled with tritiated pirenzepine (^3 H-PZ). The M2 -type receptors predominate in the heart and the ileum and can be labeled with tritiated N-methyl-scopolamine (^3 H-NMS). The selectivity of the products of the invention with respect to the M1 and M2 sites was determined by studying their in vitro interaction with ^3 H-PZ and ^3 H-NMS firmly bound with a high affinity to rat hippocampus membranes and smooth guinea-pig ileum muscle, respectively.
The interaction with the M2 -type muscarinic receptors was studied by in vitro measurement, on a smooth guinea-pig ileum muscle homogenate, of the displacement of tritiated N-methylscopolamine from its specific binding sites. […] The final volume is 1 ml. The reaction is stopped by centrifugation for 5 minutes at 15,000×g. The non-specific binding is determined in the presence of 10 mM atropine sulfate.
The IC50 for ^3 H-PZ displacement represents the affinity for the M1 receptor; the IC50 for ^3 H-NMS displacement represents the affinity for the M2 receptor.

A word on the IC50: it is the concentration at which inhibition is half-maximal. For the molecule `CCN(CC)CCNc1nc(C)cs1` [SR 44422 A], in experiment [1], the concentration for half-maximal inhibition (IC50) worked out at 8100 nM; the “ratio R of the IC50 values for the M1 and M2 receptors” value (shortened to “ratio R of the IC50 values”) is 12. The IC50 in experiment [2] came out at 100 µM.
Consider `CCN(CC)CCCNc1nc(-c2ccccc2)c(C)s1` [SR 44434 A], for which, in experiment [1], the IC50 came out at 1500 nM; the “ratio R of the IC50 values” value is 46. Moreover, the half-inhibitory concentration (IC50) in experiment [2] stood at 70 µM.
For the molecule `CCN(CC)CCNc1nc(C)c(-c2ccccc2)s1` [SR 44436 A], in experiment [1], the IC50 was found to be 1700 nM; the “ratio R of the IC50 values” value worked out at 29. Further, the IC50 in experiment [2] is 50 µM.
`CCN(CC)CCNc1nc(-c2ccccc2)c(-c2ccccc2)s1` [SR 44437 A]: the 50% inhibitory concentration (IC50) came to 430 nM in experiment [1] and 3 µM in experiment [2]. For the same molecule, the “ratio R of the IC50 values” value in experiment [1] was 7.
With `c1ccc(-c2cnc(NCCN3CCCC3)s2)cc1` [SR 44438 A], in experiment [1], the IC50 came to 1000 nM; the “ratio R of the IC50 values” value is given as 60. Also, the IC50 in experiment [2] worked out at 60 µM.
In the case of `CCCCN(CCCC)CCNc1nc(-c2ccc(F)cc2)cs1` [SR 44451 A], in experiment [1], the IC50 was determined as 6000 nM; the “ratio R of the IC50 values” value is given as 13. Further, the IC50 in experiment [2] worked out at 80 µM.
In the case of `COc1ccccc1-c1csc(NCCCN(C)C)n1` [SR 44465 A], in experiment [1], the half-maximal inhibitory concentration (IC50) is 2600 nM; the “ratio R of the IC50 values” value came to 15. Further, the IC50 in experiment [2] amounted to 40 µM.
Consider `CCN(CC)CCNc1nc(C23CC4CC(CC(C4)C2)C3)cs1` [SR 44468 A], for which, in experiment [1], the IC50 was 1200 nM; the “ratio R of the IC50 values” value is given as 18. Also, in experiment [2], the IC50 amounted to 22 µM.
Regarding `CCN(CC)CCNc1nc(-c2ccc([N+](=O)[O-])cc2)cs1` [SR 44469 A], in experiment [1], the IC50 was 2600 nM; the “ratio R of the IC50 values” value is recorded as 23. Also, the IC50 in experiment [2] amounted to 60 µM.
On the same counts, the results for `Cc1nc(NCCN2CCCC2)sc1-c1ccccc1` [SR 44488 A] are 1700 nM, 20 and 34 µM.
Take `Cc1nc(NCCN(C(C)C)C(C)C)sc1-c1ccccc1` [SR 44489 A]: in experiment [1], the concentration for half-maximal inhibition (IC50) came out at 300 nM; the “ratio R of the IC50 values” value was found to be 6. Moreover, the 50% inhibitory concentration (IC50) in experiment [2] is 2 µM.
On the same counts, the results for `c1ccc(-c2cnc(NCCN3CCCCC3)s2)cc1` [SR 44490 A] are 1500 nM, 16 and 25 µM.
Turning to `CC(C)N(CCNc1ncc(-c2ccccc2)s1)C(C)C` [SR 44491 A], in experiment [1], the IC50 amounted to 800 nM; the “ratio R of the IC50 values” value worked out at 10. Further, the IC50 in experiment [2] was found to be 8.5 µM.
Regarding `CCCCN(CCCC)CCNc1ncc(-c2ccccc2)s1` [SR 44492 A], in experiment [1], the IC50 is 3600 nM; the “ratio R of the IC50 values” value is on record as 8. Also, in experiment [2], the IC50 was found to be 28 µM.
The like results for `CCN(CC)CCCNc1nc(Cc2ccccc2)c(-c2ccccc2)s1` [SR 44515 A] were, in that order, 200 nM, 17 and 3.4 µM.
For `c1ccc2cc(-c3csc(NCCN4CCCCC4)n3)ccc2c1` [SR 44516 A], in experiment [1], the IC50 was 3400 nM; the “ratio R of the IC50 values” value was 22. The IC50 in experiment [2] was 75 µM.
On to `CN(C)CCCNc1nc(C2CCCCC2)cs1` [SR 44574 A], for which, in experiment [1], the IC50 was found to be 200 nM; the “ratio R of the IC50 values” value was 120. The IC50 in experiment [2] came out at 24 µM.
`c1csc(-c2csc(NCCN3CCOCC3)n2)c1` [SR 44575 A]: in experiment [1], the IC50 was 7000 nM; the “ratio R of the IC50 values” value is above 14. Moreover, the IC50 in experiment [2] is above 100 µM.
Regarding `Cc1sc(NCCCN(C)C)nc1-c1ccccc1` [SR 44769 A], the IC50 was 2000 nM in experiment [1] and 30 µM in experiment [2]. Moreover, in experiment [1], the “ratio R of the IC50 values” value came to 15.
In the case of `CN1CCCC1CCNc1nc(-c2ccc(F)cc2)cs1` (stereo not drawn) [SR 44786 A], the IC50 in experiment [1] amounted to 600 nM; in experiment [2], 40 µM. Also, in experiment [1], the “ratio R of the IC50 values” value was found to be 67.
As for `CN(C)CCCNc1nc(-c2cccc([N+](=O)[O-])c2)cs1` [SR 44791 A], in experiment [1], the IC50 worked out at 5000 nM; the “ratio R of the IC50 values” value amounted to 8. Besides, the IC50 in experiment [2] was 40 µM.
Take `Cc1cc(C)c(-c2csc(NCc3ccccn3)n2)c(C)c1` [SR 44813 A]: the IC50 is 6000 nM in experiment [1] and above 100 µM in experiment [2]. In experiment [1], the “ratio R of the IC50 values” value is above 17.
In the case of `Cc1ccc(-c2csc(NCCCN(C)C)n2)cc1` [SR 44832 A], in experiment [1], the IC50 was determined as 2400 nM; the “ratio R of the IC50 values” value is recorded as above 42. Also, in experiment [2], the IC50 is above 100 µM.
In the case of `Fc1ccc(-c2csc(NCc3ccncc3)n2)cc1` [SR 44840 A], in experiment [1], the IC50 turned out to be 600 nM; the “ratio R of the IC50 values” value was above 167. Also, the IC50 in experiment [2] is above 100 µM.
As to `Cc1cc(C)c(-c2csc(NCc3ccncc3)n2)c(C)c1` [SR 44864 A], in experiment [1], the IC50 amounted to 280 nM; the “ratio R of the IC50 values” value is recorded as above 360. In addition, the IC50 in experiment [2] was above 100 µM.
On the same counts, the results for `NCCCNc1nc(-c2ccc(F)cc2)cs1` [SR 44886 A, 2-[(3-Aminopropyl)amino]-4-(4-fluorophenyl)thiazole] are 6300 nM, 11 and 70 µM.
Turning to `c1ccc(-c2nc(NCc3cccnc3)sc2-c2ccccc2)cc1` [SR 44904 A], the IC50 was 6000 nM in experiment [1] and above 100 µM in experiment [2]. For the same molecule, the “ratio R of the IC50 values” value in experiment [1] was above 17.
On to `Cc1cc(C)c(-c2csc(NCCc3ccccn3)n2)c(C)c1` [SR 44905 A], for which the values for the IC50 in experiment [1] and in experiment [2] were 2400 nM and 60 µM, respectively. Besides, in experiment [1], the “ratio R of the IC50 values” value was 25.
The like results for `c1ccc(-c2nc(NCCc3ccccn3)sc2-c2ccccc2)cc1` [SR 44906 A] were, in that order, 2400 nM, above 100 µM and above 42.
The like results for `Cc1cc(C)c(-c2csc(NCCN(C(C)C)C(C)C)n2)c(C)c1` [SR 44908 A] were, in that order, 130 nM, 4 µM and 31.
With `CC(C)N(CCCNc1nc(-c2ccc(F)cc2F)cs1)C(C)C` [SR 44916 A], in experiment [1], the IC50 was 130 nM; the “ratio R of the IC50 values” value was found to be 38. Besides, in experiment [2], the IC50 was found to be 5 µM.
Turning to `CCc1nc(NCCCN(CC)CC)sc1-c1ccccc1` [SR 44963 A], in experiment [1], the IC50 worked out at 120 nM; the “ratio R of the IC50 values” value is given as 50. The half-maximal inhibitory concentration (IC50) in experiment [2] was 6 µM.
Consider `c1ccc(-c2cnc(NCCc3ccncc3)s2)cc1` [SR 44966 A], for which, in experiment [1], the IC50 was 4500 nM; the “ratio R of the IC50 values” value was 22. Also, in experiment [2], the IC50 is 100 µM.
The like results for `CN(C)CCCNc1ncc(-c2ccccc2)s1` [SR 44967 A] were, in that order, 1800 nM, 22 and 40 µM.
On to `CC(C)(c1ccccc1)c1csc(NCc2cccnc2)n1` [SR 45106 A], for which, in experiment [1], the IC50 amounted to 3000 nM; the “ratio R of the IC50 values” value is above 33. Also, the IC50 in experiment [2] was above 100 µM.
